From patent US9265253B2, “Use of macrocyclic picolinamides as fungicides” (DOW AGROSCIENCES LLC, priority 2013, dated 2016)
Like-named read-outs stand apart in the source and are kept apart here.

Columns and labels:
[1] = test system: Mycosphaerella graminicola; Anamorph: Septoria tritici; experiment: Leaf Blotch of Wheat (SEPTTR) disease control; format: in vivo; conditions: Zymoseptoria tritici
Description: (§1) Technical grades of materials were dissolved in acetone, which were then mixed with nine volumes of water containing 110 ppm Triton X-100. The fungicide solutions were applied onto wheat seedlings using an automated booth sprayer to run-off. All sprayed plants were allowed to air dry prior to further handling. All fungicides were evaluated using the aforementioned method for their activity vs. all target diseases. Wheat leaf blotch and brown rust activity were also evaluated using track spray applications, in which case the fungicides were formulated as EC formulations, containing 0.1% Trycol 5941 in the spray solutions. Wheat plants (variety Yuma) were grown from seed in a greenhouse in 50% mineral soil/50% soil-less Metro mix until the first leaf was fully emerged, with 7-10 seedlings per pot. These plants were inoculated with an aqueous spore suspension of Septoria tritici either prior to or after fungicide treatments. After inoculation the plants were kept in 100% relative humidity (one day in a dark dew chamber followed by two to three days in a lighted dew chamber at 20° C.) to permit spores to germinate and infect the leaf. The plants were then transferred to a greenhouse set at 20° C. for disease to develop. When disease symptoms were fully expressed on the 1st leaves of untreated plants, infection levels were assessed on a scale of 0 to 100 percent disease severity. Percent disease control was calculated using the ratio of disease severity on treated plants relative to untreated plants.

[2] = test system: Puccinia triticina; Synonym: Puccinia recondite f. Sp. Tritici; experiment: Wheat Brown Rust (PUCCRT) disease control; format: in vivo; conditions: Puccinia triticina, topical
Description: as §1, with “plants. Wheat plants (variety Yuma) were grown from seed in a greenhouse in 50% mineral soil/50% soil-less Metro mix until the first leaf was fully emerged, with 7-10 seedlings per pot. These plants were inoculated with an aqueous spore suspension of Puccinia triticina either prior to or after fungicide treatments. After inoculation the plants were kept in a dark dew room at 22° C. with 100% relative humidity overnight to permit spores to germinate and infect the leaf. The plants were then transferred to a greenhouse set at 24° C. for disease to develop. Fungicide formulation, application and disease assessment followed the procedures as described in the Example A.” for “plants.”

[3] = 24 h, Wheat Leaf Blotch, 1 Day Protectant, rate 100 ppm (high volume application), read-out: Disease control SEPTTR 1 DP
[4] = 24 h, Wheat Leaf Blotch, 1 Day Protectant, rate 121.5 g/H (low volume application), read-out: Disease control SEPTTR 1 DP
[5] = 72 h, Wheat Leaf Blotch, 3 Day Curative, rate 121.5 g/H (low volume application), read-out: Disease control SEPTTR 3 DC
[6] = 24 h, Wheat Brown Rust, 1 Day Protectant, rate 100 ppm (high volume application), read-out: Disease control PUCCRT 1 DP
[7] = 24 h, Wheat Brown Rust, 1 Day Protectant, rate 121.5 g/H (low volume application), read-out: Disease control PUCCRT 1 DP
[8] = 72 h, Wheat Brown Rust, 3 Day Curative, rate 100 ppm (high volume application), read-out: Disease control PUCCRT 3 DC
[9] = 72 h, Wheat Brown Rust, 3 Day Curative, rate 121.5 g/H (low volume application), read-out: Disease control PUCCRT 3 DC
[10] = 24 h, 1 Day Protectant, rate 100 ppm, read-out: SEPTTR 1 DP disease control
[11] = 72 h, 3 Day Curative, rate 100 ppm, read-out: SEPTTR 3 DC disease control
[12] = 24 h, 1 Day Protectant, rate 100 ppm, read-out: PUCCRT 1 DP disease control
[13] = 72 h, 3 Day Curative, rate 100 ppm, read-out: PUCCRT 3 DC disease control
[14] = 24 h, 1 Day Protectant, rate 121.5 g/H, read-out: SEPTTR 1 DP disease control
[15] = 72 h, 3 Day Curative, rate 121.5 g/H, read-out: SEPTTR 3 DC disease control
[16] = 24 h, 1 Day Protectant, rate 121.5 g/H, read-out: PUCCRT 1 DP disease control
[17] = 72 h, 3 Day Curative, rate 121.5 g/H, read-out: PUCCRT 3 DC disease control

| SMILES | pest or weed control at 100 ppm [1, 3] [%] | pest or weed control at 121.5 g/ha [1, 4] [%] | pest or weed control at 121.5 g/ha [1, 5] [%] | pest or weed control at 100 ppm [2, 6] [%] | pest or weed control at 121.5 g/ha [2, 7] [%] | pest or weed control at 100 ppm [2, 8] [%] | pest or weed control at 121.5 g/ha [2, 9] [%] | pest or weed control at 100 ppm [1, 10] [%] | pest or weed control at 100 ppm [1, 11] [%] | pest or weed control at 100 ppm [2, 12] [%] | pest or weed control at 100 ppm [2, 13] [%] | pest or weed control at 121.5 g/ha [1, 14] [%] | pest or weed control at 121.5 g/ha [1, 15] [%] | pest or weed control at 121.5 g/ha [2, 16] [%] | pest or weed control at 121.5 g/ha [2, 17] [%] | pest or weed control at 100 ppm ([1]; 72 h, Wheat Leaf Blotch, 3 Day Curative, rate 100 ppm (high volume application), read-out: Disease control SEPTTR 3 DC) [%] |
| --- | --- | --- | --- | --- | --- | --- | --- | --- | --- | --- | --- | --- | --- | --- | --- | --- |
| CCOCC(=O)OCOc1c(OC)ccnc1C(=O)N[C@H]1CCC[C@H](CCOCC2CC2)[C@@H](OCC2CC2)[C@H](C)OC1=O [Compound F191] | 80 to 100 | 0 to 80 | 0 to 80 | 80 to 100 | 80 to 100 | 80 to 100 | 80 to 100 |  |  |  |  |  |  |  |  |  |
| CC[C@H]1CCC[C@H](NC(=O)c2nccc(OC)c2O)C(=O)O[C@@H](C)[C@@H]1OCC(C)C [Compound F48] |  |  |  |  |  |  |  | 80 to 100 | 80 to 100 | 80 to 100 | 80 to 100 |  |  |  |  |  |
| COc1ccc(C[C@H]2CCC[C@H](NC(=O)c3nccc(OC)c3O)C(=O)O[C@@H](C)[C@@H]2OCC2CC2)cc1 [Compound F30] |  |  |  |  |  |  |  | 80 to 100 | 80 to 100 | 80 to 100 | 80 to 100 |  |  |  |  |  |
| COc1ccnc(C(=O)N[C@H]2CCC[C@H](CCC(C)C)[C@@H](Oc3ccccc3)[C@H](C)OC2=O)c1OCOC(=O)C(C)C [Compound F147] |  |  |  |  |  |  |  | 80 to 100 | 80 to 100 | 80 to 100 | 80 to 100 | 80 to 100 | 80 to 100 | 80 to 100 | 0 to 80 |  |
| COc1ccnc(C(=O)N[C@H]2CCC[C@H](CCBr)[C@@H](Oc3ccccc3)[C@H](C)OC2=O)c1OCOC(C)=O [Compound F135] |  |  |  |  |  |  |  | 80 to 100 | 80 to 100 | 80 to 100 | 80 to 100 |  |  |  |  |  |
| COc1ccnc(C(=O)N[C@H]2CCC[C@H](CCSC)[C@@H](OCC(C)C)[C@H](C)OC2=O)c1O [Compound F46] |  |  |  |  |  |  |  | 0 to 80 | 80 to 100 | 80 to 100 | 80 to 100 |  |  |  |  |  |
| COc1ccnc(C(=O)N[C@H]2CCC[C@H](CCC(C)C)[C@@H](OC3CCCC3)[C@H](C)OC2=O)c1OCOC(C)=O [Compound F94] |  |  |  |  |  |  |  | 80 to 100 | 80 to 100 | 80 to 100 | 80 to 100 |  |  |  |  |  |
| COc1ccnc(C(=O)N[C@H]2CCC[C@H](CCOCC3CC3)[C@@H](OCC3CC3)[C@H](C)OC2=O)c1OC(=O)C1CC1 [Compound F196] | 80 to 100 | 0 to 80 | 0 to 80 | 80 to 100 | 80 to 100 | 80 to 100 | 80 to 100 |  |  |  |  |  |  |  |  | 0 to 80 |
| CCOCC(=O)Oc1c(OC)ccnc1C(=O)N[C@H]1CCC[C@H](CCOC)[C@@H](OCC(C)C)[C@H](C)OC1=O [Compound F188] |  |  |  |  |  |  |  | 80 to 100 | 80 to 100 | 80 to 100 | 80 to 100 | 80 to 100 | 80 to 100 | 80 to 100 | 80 to 100 |  |
| CCOCC(=O)OCOc1c(OC)ccnc1C(=O)N[C@H]1CCC[C@H](CCC(C)C)[C@@H](OCC(C)C)[C@H](C)OC1=O [Compound F159] |  |  |  |  |  |  |  | 80 to 100 | 80 to 100 | 80 to 100 | 80 to 100 | 80 to 100 | 80 to 100 | 80 to 100 | 0 to 80 |  |
| CCOCC(=O)OCOc1c(OC)ccnc1C(=O)N[C@H]1CCC[C@H](CCC(C)C)[C@@H](OCCCC(F)(F)F)[C@H](C)OC1=O [Compound F162] |  |  |  |  |  |  |  | 80 to 100 | 80 to 100 | 80 to 100 | 80 to 100 | 80 to 100 | 80 to 100 | 80 to 100 | 0 to 80 |  |
| COCCO[C@@H]1[C@@H](Cc2ccccc2)CCC[C@H](NC(=O)c2nccc(OC)c2O)C(=O)O[C@H]1C [Compound F24] |  |  |  |  |  |  |  | 80 to 100 | 80 to 100 | 80 to 100 | 80 to 100 |  |  |  |  |  |
| COc1ccnc(C(=O)N[C@H]2CCC[C@H](CC3CCCCC3)[C@@H](OCC(C)C)[C@H](C)OC2=O)c1O [Compound F25] |  |  |  |  |  |  |  | 80 to 100 | 0 to 80 | 80 to 100 |  |  |  |  |  |  |
| COc1ccnc(C(=O)N[C@H]2CCC[C@H](CCBr)[C@@H](Oc3ccccc3)[C@H](C)OC2=O)c1O [Compound F50] |  |  |  |  |  |  |  | 80 to 100 | 80 to 100 | 80 to 100 | 80 to 100 |  |  |  |  |  |
| COc1ccnc(C(=O)N[C@H]2CCC[C@H](Cc3ccc(F)cc3)[C@@H](OC(=O)C3CCCC3)[C@H](C)OC2=O)c1O [Compound F16] |  |  |  |  |  |  |  | 80 to 100 | 0 to 80 | 80 to 100 | 0 to 80 |  |  |  |  |  |
| COc1ccnc(C(=O)N[C@H]2CCC[C@H](CCC(C)C)[C@@H](OC(=O)C3CCCC3)[C@H](C)OC2=O)c1O [Compound F8] |  |  |  |  |  |  |  | 80 to 100 | 80 to 100 | 80 to 100 | 80 to 100 |  |  |  |  |  |
| COc1ccnc(C(=O)N[C@H]2CCC[C@H](CCOCC3CC3)[C@@H](OCC3CC3)[C@H](C)OC2=O)c1OCOC(C)=O [Compound F140] |  |  |  |  |  |  |  | 80 to 100 | 0 to 80 | 80 to 100 | 80 to 100 | 0 to 80 | 0 to 80 | 80 to 100 | 80 to 100 |  |
| COc1ccnc(C(=O)N[C@H]2CCC[C@H](Cc3ccc(F)cc3)[C@@H](OC(=O)C3CCCC3)[C@H](C)OC2=O)c1OCOC(C)=O [Compound F104] |  |  |  |  |  |  |  | 80 to 100 | 80 to 100 | 80 to 100 | 80 to 100 | 80 to 100 | 80 to 100 | 80 to 100 | 0 to 80 |  |
| COc1ccnc(C(=O)N[C@H]2CCC[C@H](Cc3ccc(F)cc3)[C@@H](OCC(F)F)[C@H](C)OC2=O)c1OC(C)=O [Compound F69] |  |  |  |  |  |  |  | 80 to 100 | 80 to 100 | 80 to 100 | 80 to 100 | 80 to 100 | 80 to 100 | 80 to 100 | 80 to 100 |  |
